Test results as given in US10670605B2, “Cysteine reactive probes and uses thereof” (The Scripps Research Institute, priority 2015, dated 2020).

Key:
Assay in all cases: Competitive isoTOP-ABPP, cell lysates;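 for isoTOP-ABPP reactivity profile ratio, O00170 C122: Heavy/light ratio DMSO over fragment-treated so higher means more cysteine engagement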;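 for isoTOP-ABPP reactivity profile ratio, Q99873 C109: Heavy/light ratio DMSO over fragment-treated so higher means more cysteine engagement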
Type in all cases: binding
PRMT1 C109 (Q99873) = PRMT1 C109 (Q99873) (Homo sapiens, UniProt Q99873); settings: for isoTOP-ABPP reactivity profile ratio, Q99873_C109 / isoTOP-ABPP reactivity ratio, Q99873_C109: 500 μm; for R value (DMSO/fragment): 250 μM, in vitro; for isoTOP-ABPP ratio, Q99873_C109: 500 μM, invitro;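 for isoTOP-ABPP reactivity profile ratio, Q99873 C109: Heavy/light ratio DMSO over fragment-treated so higher means more cysteine engagement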
PRMT1 C109 (Q99873), sequence (Q99873 whole entry, the tested form may be a part): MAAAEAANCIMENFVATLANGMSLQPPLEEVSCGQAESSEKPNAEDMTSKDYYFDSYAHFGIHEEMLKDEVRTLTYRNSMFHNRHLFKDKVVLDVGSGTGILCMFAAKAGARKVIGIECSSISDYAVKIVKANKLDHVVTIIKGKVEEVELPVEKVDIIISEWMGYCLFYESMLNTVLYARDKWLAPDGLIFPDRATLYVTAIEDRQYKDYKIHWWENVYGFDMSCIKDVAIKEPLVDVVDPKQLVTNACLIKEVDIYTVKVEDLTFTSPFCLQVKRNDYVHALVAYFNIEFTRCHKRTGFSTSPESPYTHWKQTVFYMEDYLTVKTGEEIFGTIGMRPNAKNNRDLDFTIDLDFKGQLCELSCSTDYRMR

XPO1 C34 (O14980) = XPO1 C34 (O14980) (Homo sapiens, UniProt O14980); settings: for isoTOP-ABPP reactivity profile ratio, O14980_C34 / isoTOP-ABPP reactivity ratio, O14980_C34: 500 μm; for R value (DMSO/fragment): 250 μM, in vitro; for isoTOP-ABPP ratio, O14980_C34: 500 μM, invitro
XPO1 C34 (O14980), sequence (O14980 whole entry, the tested form may be a part): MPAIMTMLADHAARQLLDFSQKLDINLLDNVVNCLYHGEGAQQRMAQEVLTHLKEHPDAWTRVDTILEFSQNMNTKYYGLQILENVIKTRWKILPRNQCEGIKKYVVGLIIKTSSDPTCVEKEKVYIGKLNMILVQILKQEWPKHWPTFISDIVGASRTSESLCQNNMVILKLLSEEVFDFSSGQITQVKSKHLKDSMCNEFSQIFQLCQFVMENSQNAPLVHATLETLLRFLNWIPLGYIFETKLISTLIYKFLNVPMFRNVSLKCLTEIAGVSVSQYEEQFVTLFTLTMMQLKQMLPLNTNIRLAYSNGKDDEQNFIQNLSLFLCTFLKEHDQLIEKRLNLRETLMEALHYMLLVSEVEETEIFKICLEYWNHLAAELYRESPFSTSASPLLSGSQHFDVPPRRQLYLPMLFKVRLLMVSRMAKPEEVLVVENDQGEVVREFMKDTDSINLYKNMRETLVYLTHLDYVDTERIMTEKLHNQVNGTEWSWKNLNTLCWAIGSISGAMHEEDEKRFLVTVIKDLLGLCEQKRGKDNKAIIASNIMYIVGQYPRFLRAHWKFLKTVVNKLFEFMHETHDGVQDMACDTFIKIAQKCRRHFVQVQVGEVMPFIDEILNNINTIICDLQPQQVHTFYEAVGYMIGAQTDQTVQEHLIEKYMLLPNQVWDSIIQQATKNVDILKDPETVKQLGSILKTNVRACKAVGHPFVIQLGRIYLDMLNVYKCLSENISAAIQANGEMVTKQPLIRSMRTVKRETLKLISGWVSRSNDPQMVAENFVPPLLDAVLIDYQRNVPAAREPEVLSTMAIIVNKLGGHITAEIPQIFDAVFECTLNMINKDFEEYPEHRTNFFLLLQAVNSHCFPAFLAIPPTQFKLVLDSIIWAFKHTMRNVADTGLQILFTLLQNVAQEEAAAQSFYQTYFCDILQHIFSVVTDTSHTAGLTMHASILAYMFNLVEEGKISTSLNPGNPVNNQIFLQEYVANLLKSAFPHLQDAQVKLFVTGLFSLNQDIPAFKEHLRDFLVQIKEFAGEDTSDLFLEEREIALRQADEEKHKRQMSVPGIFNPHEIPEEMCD

UCHL3 C95 (P15374) = biological target: T1, UCHL3 C95 (P15374) (Homo sapiens, UniProt P15374); settings: for isoTOP-ABPP reactivity profile ratio, P15374_C95: 500 μm; for isoTOP-ABPP ratio, P15374_C95: 500 μM, invitro
T1 sequence (P15374 1-230): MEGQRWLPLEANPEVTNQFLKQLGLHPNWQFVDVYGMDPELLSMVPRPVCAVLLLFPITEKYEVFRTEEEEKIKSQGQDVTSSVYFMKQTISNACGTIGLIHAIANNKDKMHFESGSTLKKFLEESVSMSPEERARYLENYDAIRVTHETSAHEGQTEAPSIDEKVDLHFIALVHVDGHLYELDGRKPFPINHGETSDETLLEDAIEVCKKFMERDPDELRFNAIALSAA

PDE12 C108 (Q6L8Q7) = biological target: T2, PDE12 C108 (Q6L8Q7) (Homo sapiens, UniProt Q6L8Q7); settings: for isoTOP-ABPP reactivity profile ratio, Q6L8Q7_C108: 500 μm
T2 sequence (Q6L8Q7 43-609): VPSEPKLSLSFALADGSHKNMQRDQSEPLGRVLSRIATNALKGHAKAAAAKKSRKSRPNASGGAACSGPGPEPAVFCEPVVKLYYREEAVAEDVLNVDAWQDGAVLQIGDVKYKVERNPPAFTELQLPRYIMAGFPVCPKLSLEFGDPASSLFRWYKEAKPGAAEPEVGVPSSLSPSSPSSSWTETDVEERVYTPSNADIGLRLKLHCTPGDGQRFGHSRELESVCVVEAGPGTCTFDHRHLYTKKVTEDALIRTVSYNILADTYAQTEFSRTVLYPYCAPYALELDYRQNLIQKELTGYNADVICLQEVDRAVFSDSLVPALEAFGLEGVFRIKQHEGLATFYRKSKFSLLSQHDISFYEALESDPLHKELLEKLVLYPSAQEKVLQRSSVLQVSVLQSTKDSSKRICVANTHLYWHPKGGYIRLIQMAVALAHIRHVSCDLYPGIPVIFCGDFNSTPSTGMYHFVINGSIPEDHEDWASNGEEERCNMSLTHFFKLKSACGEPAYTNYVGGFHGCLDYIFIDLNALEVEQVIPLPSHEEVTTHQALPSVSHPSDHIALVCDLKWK

ADA C75 (P00813) = biological target: T3, ADA C75 (P00813) (Homo sapiens, UniProt P00813)
T3 sequence (P00813 1-363): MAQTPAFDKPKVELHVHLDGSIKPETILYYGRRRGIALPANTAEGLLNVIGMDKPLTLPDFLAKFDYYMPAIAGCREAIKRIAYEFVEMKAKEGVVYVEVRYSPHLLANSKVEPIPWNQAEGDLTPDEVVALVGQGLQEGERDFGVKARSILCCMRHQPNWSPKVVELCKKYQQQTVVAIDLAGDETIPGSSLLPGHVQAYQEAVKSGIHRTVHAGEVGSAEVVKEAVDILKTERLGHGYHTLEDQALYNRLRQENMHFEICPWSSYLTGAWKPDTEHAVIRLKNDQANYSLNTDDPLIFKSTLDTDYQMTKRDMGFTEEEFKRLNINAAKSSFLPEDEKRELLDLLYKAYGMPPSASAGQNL

AIP C122 (O00170) = biological target: T4, AIP C122 (O00170) (Homo sapiens, UniProt O00170); settings: for R value (DMSO/fragment): 250 μM, in vitro;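 for isoTOP-ABPP reactivity profile ratio, O00170 C122: Heavy/light ratio DMSO over fragment-treated so higher means more cysteine engagement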
T4 sequence (O00170 1-330): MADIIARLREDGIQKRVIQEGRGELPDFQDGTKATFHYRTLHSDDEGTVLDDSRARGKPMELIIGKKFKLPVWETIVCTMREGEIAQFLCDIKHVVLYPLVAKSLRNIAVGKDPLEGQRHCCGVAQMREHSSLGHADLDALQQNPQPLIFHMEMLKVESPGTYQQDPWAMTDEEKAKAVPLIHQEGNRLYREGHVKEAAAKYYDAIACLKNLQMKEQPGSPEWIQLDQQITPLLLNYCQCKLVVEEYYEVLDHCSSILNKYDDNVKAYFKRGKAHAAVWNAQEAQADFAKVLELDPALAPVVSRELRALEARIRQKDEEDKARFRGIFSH

DCUN1D1 C115 (Q96GG9) = DCUN1D1 C115 (Q96GG9) (Homo sapiens, UniProt Q96GG9); settings: 500 μm
DCUN1D1 C115 (Q96GG9), sequence (Q96GG9 whole entry): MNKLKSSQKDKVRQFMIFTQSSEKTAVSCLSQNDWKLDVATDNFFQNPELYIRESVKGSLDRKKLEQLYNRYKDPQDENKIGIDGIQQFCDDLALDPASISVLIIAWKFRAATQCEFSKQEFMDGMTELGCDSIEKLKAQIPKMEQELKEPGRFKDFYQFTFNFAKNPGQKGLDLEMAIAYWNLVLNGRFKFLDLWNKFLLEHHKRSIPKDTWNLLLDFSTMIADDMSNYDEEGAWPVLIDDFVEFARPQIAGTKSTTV

Compound: O=C(CCl)NC1C(O)OC(CO)C(O)C1O (mixture of isomers) [compound 44]
- isoTOP-ABPP reactivity profile ratio, Q99873_C109 (PRMT1 C109 (Q99873); in-vitro_ramos_231): 0.8
- isoTOP-ABPP reactivity profile ratio, O14980_C34 (XPO1 C34 (O14980); in-vitro_ramos_231): 0.8
- isoTOP-ABPP reactivity profile ratio, P15374_C95 (UCHL3 C95 (P15374); in-vitro_ramos_231): 0.8
- isoTOP-ABPP reactivity profile ratio, Q6L8Q7_C108 (PDE12 C108 (Q6L8Q7); in-vitro_ramos_231): 0.8

Compound: COc1ccc(C2CC(c3cccs3)=NN2C(=O)CCl)cc1 (stereo not shown) [compound 4]
- R value (DMSO/fragment) (PRMT1 C109 (Q99873); MDA-MB-231): 1.1
- R value (DMSO/fragment) (PRMT1 C109 (Q99873); Ramos): 0.2
- R value (DMSO/fragment) (XPO1 C34 (O14980); MDA-MB-231): 1.0
- R value (DMSO/fragment) (XPO1 C34 (O14980); Ramos): 0.2
- R value (DMSO/fragment) (UCHL3 C95 (P15374); 250 μM, in vitro, Ramos): 0.9
- R value (DMSO/fragment) (ADA C75 (P00813); 250 μM, in vitro, Ramos): 0.1
- R value (DMSO/fragment) (AIP C122 (O00170); MDA-MB-231): 2.5
- R value (DMSO/fragment) (AIP C122 (O00170); Ramos): 0.3

Compound: C=CC(=O)N(c1ccccc1)c1ccc(Br)cc1 [compound 5]
- isoTOP-ABPP ratio, Q99873_C109 (PRMT1 C109 (Q99873); 231): 0.9
- isoTOP-ABPP ratio, Q99873_C109 (PRMT1 C109 (Q99873); ramos): 1.3
- isoTOP-ABPP ratio, O14980_C34 (XPO1 C34 (O14980); 231): 1.1
- isoTOP-ABPP ratio, O14980_C34 (XPO1 C34 (O14980); ramos): 1.2
- isoTOP-ABPP ratio, P15374_C95 (UCHL3 C95 (P15374); 231): 1.5
- isoTOP-ABPP ratio, P15374_C95 (UCHL3 C95 (P15374); ramos): 1.1
- isoTOP-ABPP ratio, P00813_C75 (ADA C75 (P00813); 500 μM, invitro, ramos): 2.5

Compound: CNS(=O)(=O)C=Cc1ccc2c(ccn2Cc2ccccc2)c1 [compound 6]
- isoTOP-ABPP ratio, Q99873_C109 (PRMT1 C109 (Q99873); 231): 1.1
- isoTOP-ABPP ratio, O14980_C34 (XPO1 C34 (O14980); 231): 1.2
- isoTOP-ABPP ratio, P15374_C95 (UCHL3 C95 (P15374); 231): 1.1

Compound: CC(Cl)C(=O)Nc1cc(C(F)(F)F)cc(C(F)(F)F)c1 (stereo not shown) [compound 25]
- isoTOP-ABPP ratio (reactivity profile), Q99873_C109 (PRMT1 C109 (Q99873); 500 μm in-vitro ramos_231): 1.0
- isoTOP-ABPP ratio (reactivity profile), O14980_C34 (XPO1 C34 (O14980); 500 μm in-vitro ramos_231): 0.9
- isoTOP-ABPP ratio (reactivity profile), P15374_C95 (UCHL3 C95 (P15374); 500 μm in-vitro ramos_231): 0.8
- isoTOP-ABPP ratio (reactivity profile), Q6L8Q7_C108 (PDE12 C108 (Q6L8Q7); 500 μm in-vitro ramos_231): 0.8

Compound: O=C(CCl)N1CCN(CC(=O)N2CCOCC2)CC1 [compound 29]
- isoTOP-ABPP ratio (reactivity profile), Q99873_C109 (PRMT1 C109 (Q99873); 500 μm in-vitro ramos): 0.9
- isoTOP-ABPP ratio (reactivity profile), Q99873_C109 (PRMT1 C109 (Q99873); 500 μm in-vitro ramos_231): 1.0
- isoTOP-ABPP ratio (reactivity profile), O14980_C34 (XPO1 C34 (O14980); 500 μm in-vitro ramos): 0.9
- isoTOP-ABPP ratio (reactivity profile), O14980_C34 (XPO1 C34 (O14980); 500 μm in-vitro ramos_231): 1.3
- isoTOP-ABPP ratio (reactivity profile), P15374_C95 (UCHL3 C95 (P15374); 500 μm in-vitro ramos): 1.0
- isoTOP-ABPP ratio (reactivity profile), P15374_C95 (UCHL3 C95 (P15374); 500 μm in-vitro ramos_231): 0.9
- isoTOP-ABPP ratio (reactivity profile), O00170_C122 (AIP C122 (O00170); 500 μm in-vitro ramos): 1.3

Compound: O=C(CCl)N(Cc1ccc(F)cc1)C12CC3CC(CC(C3)C1)C2 [compound 34]
- isoTOP-ABPP reactivity ratio, Q99873_C109 (PRMT1 C109 (Q99873); in-vitro_ramos): 1.1
- isoTOP-ABPP reactivity ratio, Q99873_C109 (PRMT1 C109 (Q99873); in-vitro_ramos_231): 0.8
- isoTOP-ABPP reactivity ratio, O14980_C34 (XPO1 C34 (O14980); in-vitro_ramos): 1.1
- isoTOP-ABPP reactivity ratio, O14980_C34 (XPO1 C34 (O14980); in-vitro_ramos_231): 0.8
- isoTOP-ABPP reactivity ratio, P00813_C75 (ADA C75 (P00813); 500 μm, in-vitro_ramos): 1.1
- isoTOP-ABPP reactivity ratio, O00170_C122 (AIP C122 (O00170); 500 μm, in-vitro_ramos_231): 1.0

Compound: CC1CCc2ccccc2N1C(=O)CCl (stereo not shown) [compound 45]
- isoTOP-ABPP reactivity profile ratio, Q99873_C109 (PRMT1 C109 (Q99873); in-vitro_ramos_231): 2.2
- isoTOP-ABPP reactivity profile ratio, O14980_C34 (XPO1 C34 (O14980); in-vitro_ramos_231): 1.8

Compound: C=CC(=O)N(c1ccccc1)C1CCCCC1 [compound 46]
- isoTOP-ABPP reactivity profile ratio, Q99873_C109 (PRMT1 C109 (Q99873); in-vitro_ramos_231): 0.8
- isoTOP-ABPP reactivity profile ratio, O14980_C34 (XPO1 C34 (O14980); in-vitro_ramos_231): 1.0
- isoTOP-ABPP reactivity profile ratio, P15374_C95 (UCHL3 C95 (P15374); in-vitro_ramos_231): 1.0

Compound: O=C(CCl)N1CCc2cc(Br)ccc21 [compound 50]
- isoTOP-ABPP reactivity profile ratio, Q99873_C109 (PRMT1 C109 (Q99873); in-vitro_ramos_231): 1.0
- isoTOP-ABPP reactivity profile ratio, O14980_C34 (XPO1 C34 (O14980); in-vitro_ramos_231): 1.2
- isoTOP-ABPP reactivity profile ratio, P15374_C95 (UCHL3 C95 (P15374); in-vitro_ramos_231): 1.3
- isoTOP-ABPP reactivity profile ratio, Q6L8Q7_C108 (PDE12 C108 (Q6L8Q7); in-vitro_ramos_231): 1.8
- isoTOP-ABPP reactivity profile ratio, O00170_C122 (AIP C122 (O00170); 500 μm, in-vitro_ramos_231): 2.3

Compound: C=CC(=O)N1CCC(Cc2ccccc2)CC1 [compound 53]
- isoTOP-ABPP reactivity profile ratio, Q99873_C109 (PRMT1 C109 (Q99873); in-vitro_ramos): 1.1
- isoTOP-ABPP reactivity profile ratio, Q99873_C109 (PRMT1 C109 (Q99873); in-vitro_ramos_231): 0.9
- isoTOP-ABPP reactivity profile ratio, O14980_C34 (XPO1 C34 (O14980); in-vitro_ramos): 1.0
- isoTOP-ABPP reactivity profile ratio, O14980_C34 (XPO1 C34 (O14980); in-vitro_ramos_231): 0.9
- isoTOP-ABPP reactivity profile ratio, Q96GG9_C115 (DCUN1D1 C115 (Q96GG9); in-vitro_ramos): 0.9
- isoTOP-ABPP reactivity profile ratio, Q96GG9_C115 (DCUN1D1 C115 (Q96GG9); in-vitro_ramos_231): 1.0
- isoTOP-ABPP reactivity profile ratio, P15374_C95 (UCHL3 C95 (P15374); in-vitro_ramos): 0.7
- isoTOP-ABPP reactivity profile ratio, Q6L8Q7_C108 (PDE12 C108 (Q6L8Q7); in-vitro_ramos): 1.1
- isoTOP-ABPP reactivity profile ratio, O00170_C122 (AIP C122 (O00170); 500 μm, in-vitro_ramos): 0.9
